# Data taken from US20230078764A1 (Yumanity Therapeutics, Inc., priority 2019, published 2023).
# Read-outs that look alike come from different tables or passages of the source.
# Experiments:
# human SCD1 = molecular target: T1, human SCD1 (Homo sapiens, UniProt O00767); experiment: Growth inhibition of yeast strain expressing human SCD1 as sole desaturase (OLE1 deleted), OD600 readout; format: cell-based
# T1 construct: expressed in transfected cells; host or cells: yeast strain with OLE1 deleted, plasmid-borne human SCD1 (selected in SD-Ura)
# T1 sequence (O00767 1-359): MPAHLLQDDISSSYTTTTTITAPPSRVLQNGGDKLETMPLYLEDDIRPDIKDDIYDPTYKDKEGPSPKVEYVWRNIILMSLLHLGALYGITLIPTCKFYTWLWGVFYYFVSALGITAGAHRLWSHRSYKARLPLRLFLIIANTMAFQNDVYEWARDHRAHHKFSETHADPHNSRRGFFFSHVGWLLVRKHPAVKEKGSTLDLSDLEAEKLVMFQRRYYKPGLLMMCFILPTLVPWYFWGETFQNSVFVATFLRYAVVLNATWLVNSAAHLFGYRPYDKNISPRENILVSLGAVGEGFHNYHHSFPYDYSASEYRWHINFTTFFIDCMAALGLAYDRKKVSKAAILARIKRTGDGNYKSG
# human SCD5 = molecular target: T2, human SCD5 (Homo sapiens, UniProt Q86SK9); experiment: Growth inhibition of yeast strain expressing human SCD5 as sole desaturase (OLE1 deleted), OD600 readout; format: cell-based
# T2 construct: expressed in transfected cells; host or cells: yeast strain with OLE1 deleted, plasmid-borne human SCD5 (selected in SD-Ura)
# T2 sequence (Q86SK9 1-330): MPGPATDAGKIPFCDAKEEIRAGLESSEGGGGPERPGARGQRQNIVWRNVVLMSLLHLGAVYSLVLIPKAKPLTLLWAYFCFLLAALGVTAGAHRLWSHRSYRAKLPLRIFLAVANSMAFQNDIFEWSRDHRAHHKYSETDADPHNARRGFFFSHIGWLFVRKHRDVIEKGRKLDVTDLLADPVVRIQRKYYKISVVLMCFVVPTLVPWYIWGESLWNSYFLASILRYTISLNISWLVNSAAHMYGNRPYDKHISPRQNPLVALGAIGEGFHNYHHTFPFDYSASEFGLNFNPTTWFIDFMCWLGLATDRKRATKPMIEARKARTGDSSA
# [1] = yeast strain expressing human SCD1 as sole desaturase, growth (OD600) after 40 h at 30° C., read-out: SCD1 IC50
# [2] = yeast strain expressing human SCD5 as sole desaturase, growth (OD600) after 40 h at 30° C., read-out: SCD5 IC50
IC50 (human SCD1; [1]),IC50 (human SCD5; [2]),Structure (SMILES),IC50 (human SCD1; SCD1 IC50),IC50 (human SCD5; SCD5 IC50)
7450 nM,2510 nM,"CC(C)N1N=C(C(=O)Nc2ncc(Cc3cccc(Cl)c3)s2)CCC1=O [Compound 222, N-(5-(3-Chlorobenzyl)thiazol-2-yl)-1-isopropyl-6-oxo-1,4,5,6-tetrahydropyridazine-3-carboxamide]",,
> 45000 nM,1200 nM,Cn1nc(C(=O)Nc2ccc(COc3ccccc3)cn2)ccc1=O [Compound 584],,
1400 nM,> 45000 nM,O=C(O)c1ccc(C(=O)Nc2ccc(Cc3cccc(Cl)c3)cn2)nn1 [Compound 451],,
2030 nM,70 nM,Cc1ccc(C(=O)Nc2ccc(Cc3ccc(F)c(F)c3)cn2)nn1 [Compound 241],,
10 nM,10 nM,O=C(Nc1ccc(CC2CCCCC2)cn1)c1ccc(CO)cn1 [Compound 321],,
> 45000 nM,> 45000 nM,C=CCCc1ccc(NC(=O)C2=NN(C)C(=O)CC2)nc1 [Compound 444],,
> 45000 nM,9390 nM,O=C(Nc1ccc(Cc2cccc(F)c2)cn1)c1cc(Br)sn1 [Compound 334],,
> 45000 nM,14500 nM,Cn1nc(C(=O)Nc2ccc(CCOc3ccccc3)cn2)ccc1=O [Compound 362],,
1860 nM,20 nM,Cn1cc(NC(=O)c2ccc(Cc3ccc(F)c(F)c3)cn2)ccc1=O [Compound 313],,
> 45000 nM,> 45000 nM,CN1N=C(C(=O)Nc2ccc(Cc3cccc(C=O)c3)cn2)CCC1=O [Compound 440],,
> 45000 nM,1400 nM,Cn1nc(C(=O)Nc2ccc(C3(c4ccc(F)c(F)c4)CC3)cn2)ccc1=O [Compound 653],,
> 45000 nM,3530 nM,"COc1cccc(Cc2ccc(NC(=O)C3=NN(C)C(=O)CC3)nc2)c1 [Example 30, N-(5-(3-methoxybenzyl)pyridin-2-yl)-1-methyl-6-oxo-1,4,5,6-tetrahydropyridazine-3-carboxamide]",,
17000 nM,1100 nM,Cn1cc(C(=O)Nc2ccc(Oc3ccc(F)c(F)c3)cn2)ccc1=O [Compound 587],,
> 45000 nM,> 45000 nM,O=C(Nc1ccc(Cc2cccc(Cl)c2)cn1)c1ccn2cnnc2c1 [Compound 429],,
39000 nM,150 nM,CN1N=C(C(=O)Nc2ccc(COc3ccc(F)c(F)c3)cn2)CCC1=O [Compound 598],,
1930 nM,> 45000 nM,COC(=O)c1ccc(C(=O)Nc2ccc(Cc3cccc(Cl)c3)cn2)nn1 [Compound 454],,
6000 nM,200 nM,N#Cc1ccc(C(=O)Nc2ccc(Cc3ccc(F)c(C#N)c3)cn2)nc1 [Compound 534],,
> 45000 nM,> 45000 nM,Cn1cc(-c2ccc(NC(=O)Cc3cccc(F)c3)nc2)ccc1=O [Compound 457],,
2960 nM,270 nM,Cn1c(C(=O)Nc2ccc(Cc3cccc(F)c3)cn2)coc1=O [Compound 283],,
,,"Cn1cc(C(=O)Nc2ccc(Cc3ccc(C(F)(F)F)cc3)cn2)ccc1=O [Compound 63, 1-methyl-6-oxo-N-(5-(4-(trifluoromethyl)benzyl)pyridin-2-yl)-1,6-dihydropyridine-3-carboxamide]",380 nM,320 nM
10 nM,10 nM,"O=C(Nc1ccc(Cc2cccc(Cl)c2)cn1)c1ccc(CO)nn1 [Compound 122, N-(5-(3-chlorobenzyl)pyridin-2-yl)-6-(hydroxymethyl)pyridazine-3-carboxamide]",,

IC50 (human SCD1; [1]),IC50 (human SCD5; [2]),Structure (SMILES),IC50 (human SCD1; SCD1 IC50),IC50 (human SCD5; SCD5 IC50)
10 nM,10 nM,"O=C(Nc1ccc(CO)nc1)c1ccc(Cc2cccc(Cl)c2)cn1 [Compound 132, 5-(3-Chlorobenzyl)-N-(6-(hydroxymethyl)pyridin-3-yl)picolinamide]",,
3600 nM,290 nM,N#Cc1cc(F)cc(Cc2ccc(NC(=O)c3ccnc(Cl)n3)nc2)c1 [Compound 666],,
> 45000 nM,29 nM,Cc1cc(C(=O)Nc2ccc(Cc3cc(F)cc(F)c3)cn2)nn(C)c1=O [Compound 524],,
360 nM,60 nM,CC(O)c1ccc(C(=O)Nc2ccc(Cc3ccc(F)c(Cl)c3)cn2)cn1 (stereo not shown) [Compound 522],,
> 45000 nM,> 45000 nM,CN1N=C(C(=O)Nc2nnc(Cc3cccc(Cl)c3)o2)CCC1=O [Compound 409],,
210 nM,21 nM,Cc1nccc(C(=O)Nc2ccc(Cc3ccc(F)c(F)c3)cn2)n1 [Compound 485],,
10 nM,10 nM,Cn1cc(C(=O)Nc2ccc(Cc3cc(F)cc(Cl)c3)cn2)cn1 [Compound 316],,
72 nM,10 nM,Cn1cc(C(=O)Nc2ccc(Cc3ccc(F)c(F)c3)cn2)n(C)c1=O [Compound 643],,
130 nM,50 nM,CCO/C=C/c1ccc(C(=O)Nc2ccc(Cc3cccc(Cl)c3)cn2)cn1 [Compound 318],,
23300 nM,350 nM,CN1N=C(C(=O)Nc2ccc(COc3ccc(F)c(Cl)c3)cn2)CCC1=O [Compound 265],,
60 nM,10 nM,Cc1ccc(C(=O)Nc2ccc(Cc3cccc(Cl)c3)cn2)nn1 [Compound 243],,
560 nM,10 nM,"Cn1cc(NC(=O)c2ccc(Cc3cccc(Cl)c3)cn2)ccc1=O [Compound 57, 5-(3-chlorobenzyl)-N-(1-methyl-6-oxo-1,6-dihydropyridin-3-yl)picolinamide]",,
> 45000 nM,79 nM,Cn1nc(C(=O)Nc2ccc(COc3ccccc3Cl)cn2)ccc1=O [Compound 615],,
> 45000 nM,5490 nM,"CN1N=C(C(=O)Nc2ccc(Cc3cc(Cl)ccc3F)nn2)CCC1=O [Compound 177, N-(6-(5-chloro-2-fluorobenzyl)pyridazin-3-yl)-1-methyl-6-oxo-1,4,5,6-tetrahydropyridazine-3-carboxamide]",,
> 45000 nM,5800 nM,"CCn1nc(C(=O)Nc2ccc(Cc3cccc(F)c3)nn2)ccc1=O [Compound 199, 1-ethyl-N-(6-(3-fluorobenzyl)pyridazin-3-yl)-6-oxo-1,6-dihydropyridazine-3-carboxamide]",,
> 45000 nM,280 nM,"CN1N=C(NC(=O)c2ccc(Cc3ccc(F)c(F)c3)cn2)CCC1=O [Compound 87, 5-(3,4-Difluorobenzyl)-N-(1-methyl-6-oxo-1,4,5,6-tetrahydropyridazin-3-yl)picolinamide]",,
190 nM,10 nM,"O=C(Nc1ccc(Cc2cccc(Cl)c2)cn1)c1ccc2nncn2c1 [Compound 146, N-(5-(3-chlorobenzyl)pyridin-2-yl)-[1,2,4]triazolo[4,3-a]pyridine-6-carboxamide]",,
20 nM,20 nM,O=C(Nc1ccc(Cc2cccc(Cl)c2)cn1)c1ccc(CCO)nc1 [Compound 366],,
> 45000 nM,110 nM,Cc1cc(C(=O)Nc2ccc(Cc3ccc(F)c(F)c3)cn2)nn(C)c1=O [Compound 523],,
1650 nM,260 nM,"CCn1nc(C(=O)Nc2ccc(Cc3cccc(F)c3)cn2)ccc1=O [Compound 68, 1-ethyl-N-(5-(3-fluorobenzyl)pyridin-2-yl)-6-oxo-1,6-dihydropyridazine-3-carboxamide]",,

Structure (SMILES),IC50 (human SCD1; [1]),IC50 (human SCD5; [2]),IC50 (human SCD1; SCD1 IC50),IC50 (human SCD5; SCD5 IC50)
"CN1N=C(C(=O)Nc2ccc(Oc3ccccc3Cl)cn2)CCC1=O [Compound 156, N-(5-(2-chlorophenoxy)pyridin-2-yl)-1-methyl-6-oxo-1,4,5,6-tetrahydropyridazine-3-carboxamide]",> 45000 nM,28100 nM,,
"CC(C)n1cc(C(=O)Nc2ccc(Oc3cccc(Cl)c3)cn2)ccc1=O [Compound 166, N-[5-(3-chlorophenoxy)pyridin-2-yl]-6-oxo-1-(propan-2-yl)-1,6-dihydropyridine-3-carboxamide]",14700 nM,9360 nM,,
"CCn1cc(C(=O)Nc2ccc(Cc3cc(F)cc(OC)c3)cn2)ccc1=O [Compound 78, 1-ethyl-N-(5-(3-fluoro-5-methoxybenzyl)pyridin-2-yl)-6-oxo-1,6-dihydropyridine-3-carboxamide]",> 45000 nM,640 nM,,
"O=C(Nc1ccc(Cc2ccc(F)c(Cl)c2)cn1)c1ccc(=O)n(C2CC2)n1 [Compound 76, N-(5-(3-chloro-4-fluorobenzyl)pyridin-2-yl)-1-cyclopropyl-6-oxo-1,6-dihydropyridazine-3-carboxamide]",10 nM,10 nM,,
"CN1N=C(C(=O)Nc2ccc(Cc3cccc(Br)c3)nn2)CCC1=O [Compound 191, N-(6-(3-bromobenzyl)pyridazin-3-yl)-1-methyl-6-oxo-1,4,5,6-tetrahydropyridazine-3-carboxamide]",> 45000 nM,2680 nM,,
"O=C(Nc1ccc(Cc2cc(F)cc(F)c2)cn1)c1ccc2nncn2c1 [Compound 149, N-(5-(3,5-difluorobenzyl)pyridin-2-yl)-[1,2,4]triazolo[4,3-a]pyridine-6-carboxamide]",230 nM,10 nM,,
